Source: ChEMBL document CHEMBL1201862, “PubChem BioAssay data set” (2004)
Calls of active or inactive are those of the source.

Experiments:
[1] = fluconazole-exposed Candida albicans growth modulators – fluorescence, retest, confirmation (AID 2467); format: functional, cell-based
[2] = biological target: T1, Microphthalmia-associated transcription factor (Homo sapiens, UniProt O75030); assay: reducers of TRPM1 reporter luminescence, concentration series – cell-based, SK-MEL-5, cherry-picked, set 3, MITF inhibitor project, dose response (AID 493073); format: functional;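 further: SK-MEL-5 melanoma cells with luciferase driven by the MITF target TRPM1 promoter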
T1 sequence (O75030 whole entry): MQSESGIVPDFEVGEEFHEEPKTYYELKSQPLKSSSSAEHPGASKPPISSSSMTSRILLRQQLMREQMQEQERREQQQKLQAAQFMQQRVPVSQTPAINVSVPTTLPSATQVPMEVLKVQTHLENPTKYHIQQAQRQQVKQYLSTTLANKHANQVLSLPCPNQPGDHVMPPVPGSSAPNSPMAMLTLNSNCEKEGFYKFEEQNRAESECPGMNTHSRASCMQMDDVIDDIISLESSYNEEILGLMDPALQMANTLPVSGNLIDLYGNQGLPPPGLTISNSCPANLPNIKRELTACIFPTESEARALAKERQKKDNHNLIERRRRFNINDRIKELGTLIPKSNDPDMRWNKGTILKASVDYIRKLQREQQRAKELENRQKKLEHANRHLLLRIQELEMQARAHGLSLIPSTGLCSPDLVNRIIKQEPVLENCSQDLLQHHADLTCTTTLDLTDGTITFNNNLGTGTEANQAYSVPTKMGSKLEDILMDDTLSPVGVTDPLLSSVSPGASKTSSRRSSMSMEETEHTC

[3] = viability of PTEN-deleted HCT116 cells – cell-based, HCT116 PTEN knockout, dose response (AID 1047); format: functional;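 further: HCT116 colon tumor cells with PTEN knocked out; cells exposed to compound for 60 hours before readout; potency for loss of cell viability measured by luminescence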
[4] = viability of HCT116 lacking mutant beta-catenin – cell-based, human colon tumor, dose response (AID 1045); format: functional;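 further: HCT116 colon tumor cells with beta catenin knocked out; cells exposed to compound for 60 hours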
cells = format: functional
[5] = biological target: T2, Replicative DNA helicase DnaB (Mycobacterium tuberculosis, UniProt P9WMR3); assay: DnaB intein splicing inhibitors, dose response, biochemical, cell-free fluorescence (AID 449749); format: functional
T2 sequence (P9WMR3 whole entry): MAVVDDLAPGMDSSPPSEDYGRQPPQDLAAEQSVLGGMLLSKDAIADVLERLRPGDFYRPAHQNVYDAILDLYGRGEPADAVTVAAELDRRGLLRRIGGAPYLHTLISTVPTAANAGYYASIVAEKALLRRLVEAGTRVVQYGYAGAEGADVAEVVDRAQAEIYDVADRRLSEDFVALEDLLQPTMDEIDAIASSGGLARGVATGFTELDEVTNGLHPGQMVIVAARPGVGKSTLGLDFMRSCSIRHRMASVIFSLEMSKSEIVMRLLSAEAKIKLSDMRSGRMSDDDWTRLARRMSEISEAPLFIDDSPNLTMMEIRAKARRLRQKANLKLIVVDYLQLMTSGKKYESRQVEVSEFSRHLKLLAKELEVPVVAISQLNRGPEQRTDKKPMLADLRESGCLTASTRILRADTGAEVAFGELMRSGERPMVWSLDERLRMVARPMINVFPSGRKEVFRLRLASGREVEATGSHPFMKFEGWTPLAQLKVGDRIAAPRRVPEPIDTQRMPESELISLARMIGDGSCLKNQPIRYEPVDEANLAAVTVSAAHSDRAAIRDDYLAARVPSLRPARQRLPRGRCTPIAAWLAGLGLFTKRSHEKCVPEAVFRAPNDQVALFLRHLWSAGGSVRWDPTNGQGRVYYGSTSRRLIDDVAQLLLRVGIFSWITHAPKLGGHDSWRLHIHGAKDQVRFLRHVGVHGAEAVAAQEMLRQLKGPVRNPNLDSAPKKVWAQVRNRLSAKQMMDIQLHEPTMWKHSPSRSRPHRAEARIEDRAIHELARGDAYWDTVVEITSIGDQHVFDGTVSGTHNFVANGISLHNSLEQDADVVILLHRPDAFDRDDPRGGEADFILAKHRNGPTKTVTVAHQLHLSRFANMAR

[6] = biological target: Protein kinase C theta type (Homo sapiens, UniProt Q04759); assay: Navigating the Kinome. Panel member name: PRKCQ; format: functional
[7] = biological target: Serine/threonine-protein kinase TBK1 (Homo sapiens, UniProt Q9UHD2); assay: Navigating the Kinome. Panel member name: TBK1; format: functional
[8] = biological target: ALK tyrosine kinase receptor (Homo sapiens, UniProt Q9UM73); format: functional;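 further: ALK tested as one member of a kinase panel screen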
[9] = biological target: Tyrosine-protein kinase receptor TYRO3 (Homo sapiens, UniProt Q06418); format: functional;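 further: TYRO3 value obtained as one member of a kinome-wide profiling panel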
[10] = biological target: Death-associated protein kinase 3 (Homo sapiens, UniProt O43293); format: functional;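 further: measured as one member of a kinome-wide profiling panel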
Activin receptor type-1 = biological target: T3, Activin receptor type-1 (Homo sapiens, UniProt Q04771); assay: Navigating the Kinome. Panel member name: ACVR1; format: functional
T3 sequence (Q04771 whole entry): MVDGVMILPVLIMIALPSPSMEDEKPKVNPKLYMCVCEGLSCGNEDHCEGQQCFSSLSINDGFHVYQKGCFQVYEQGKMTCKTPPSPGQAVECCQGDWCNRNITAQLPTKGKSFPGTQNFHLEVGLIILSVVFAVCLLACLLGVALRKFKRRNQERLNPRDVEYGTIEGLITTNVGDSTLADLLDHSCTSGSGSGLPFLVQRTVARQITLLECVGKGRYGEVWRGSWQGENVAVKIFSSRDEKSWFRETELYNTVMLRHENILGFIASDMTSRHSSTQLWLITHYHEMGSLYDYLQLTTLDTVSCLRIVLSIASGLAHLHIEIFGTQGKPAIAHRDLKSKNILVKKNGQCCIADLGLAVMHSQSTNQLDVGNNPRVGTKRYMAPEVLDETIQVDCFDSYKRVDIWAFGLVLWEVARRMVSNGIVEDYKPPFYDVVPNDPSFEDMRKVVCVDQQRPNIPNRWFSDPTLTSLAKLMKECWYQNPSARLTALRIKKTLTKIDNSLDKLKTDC

Aurora kinase A = Aurora kinase A (Homo sapiens, UniProt O14965); format: functional;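 further: value from the Navigating the Kinome kinase panel profiling, panel entry STK6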
[11] = biological target: Glycogen synthase kinase-3 alpha (Homo sapiens, UniProt P49840); format: functional;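 further: GSK3A result taken from a broad kinome-wide kinase panel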
[12] = biological target: Insulin-like growth factor 1 receptor (Homo sapiens, UniProt P08069); assay: Navigating the Kinome. Panel member name: IGF1R; format: functional
[13] = biological target: Platelet-derived growth factor receptor alpha (Homo sapiens, UniProt P16234); assay: Navigating the Kinome. Panel member name: PDGFRA; format: functional
[14] = biological target: Tyrosine-protein kinase Fyn (Homo sapiens, UniProt P06241); format: functional
[15] = biological target: Cyclin-dependent kinase 7 (Homo sapiens, UniProt P50613); format: functional;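 further: value comes from a kinome-wide kinase profiling panel in which CDK7 is one member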
[16] = biological target: Dual specificity mitogen-activated protein kinase kinase 2 (Homo sapiens, UniProt P36507); assay: Navigating the Kinome. Panel member name: MAP2K2; format: functional
[17] = biological target: Mitogen-activated protein kinase 14 (Homo sapiens, UniProt Q16539); format: functional;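 further: part of a kinome-wide panel, MAPK14 entry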
Chain of Mitogen-activated protein kinase 14 (Q16539 whole entry): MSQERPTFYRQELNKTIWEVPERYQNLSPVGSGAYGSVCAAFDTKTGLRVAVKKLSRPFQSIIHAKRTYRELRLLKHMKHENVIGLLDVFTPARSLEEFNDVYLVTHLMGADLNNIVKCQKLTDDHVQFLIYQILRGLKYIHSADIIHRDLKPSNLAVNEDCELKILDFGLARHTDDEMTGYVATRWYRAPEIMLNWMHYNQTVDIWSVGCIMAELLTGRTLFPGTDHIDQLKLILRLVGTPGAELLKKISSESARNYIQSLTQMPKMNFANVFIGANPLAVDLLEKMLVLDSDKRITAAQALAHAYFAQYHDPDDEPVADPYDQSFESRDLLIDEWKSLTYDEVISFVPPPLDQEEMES

Chain of Platelet-derived growth factor receptor alpha (P16234 whole entry): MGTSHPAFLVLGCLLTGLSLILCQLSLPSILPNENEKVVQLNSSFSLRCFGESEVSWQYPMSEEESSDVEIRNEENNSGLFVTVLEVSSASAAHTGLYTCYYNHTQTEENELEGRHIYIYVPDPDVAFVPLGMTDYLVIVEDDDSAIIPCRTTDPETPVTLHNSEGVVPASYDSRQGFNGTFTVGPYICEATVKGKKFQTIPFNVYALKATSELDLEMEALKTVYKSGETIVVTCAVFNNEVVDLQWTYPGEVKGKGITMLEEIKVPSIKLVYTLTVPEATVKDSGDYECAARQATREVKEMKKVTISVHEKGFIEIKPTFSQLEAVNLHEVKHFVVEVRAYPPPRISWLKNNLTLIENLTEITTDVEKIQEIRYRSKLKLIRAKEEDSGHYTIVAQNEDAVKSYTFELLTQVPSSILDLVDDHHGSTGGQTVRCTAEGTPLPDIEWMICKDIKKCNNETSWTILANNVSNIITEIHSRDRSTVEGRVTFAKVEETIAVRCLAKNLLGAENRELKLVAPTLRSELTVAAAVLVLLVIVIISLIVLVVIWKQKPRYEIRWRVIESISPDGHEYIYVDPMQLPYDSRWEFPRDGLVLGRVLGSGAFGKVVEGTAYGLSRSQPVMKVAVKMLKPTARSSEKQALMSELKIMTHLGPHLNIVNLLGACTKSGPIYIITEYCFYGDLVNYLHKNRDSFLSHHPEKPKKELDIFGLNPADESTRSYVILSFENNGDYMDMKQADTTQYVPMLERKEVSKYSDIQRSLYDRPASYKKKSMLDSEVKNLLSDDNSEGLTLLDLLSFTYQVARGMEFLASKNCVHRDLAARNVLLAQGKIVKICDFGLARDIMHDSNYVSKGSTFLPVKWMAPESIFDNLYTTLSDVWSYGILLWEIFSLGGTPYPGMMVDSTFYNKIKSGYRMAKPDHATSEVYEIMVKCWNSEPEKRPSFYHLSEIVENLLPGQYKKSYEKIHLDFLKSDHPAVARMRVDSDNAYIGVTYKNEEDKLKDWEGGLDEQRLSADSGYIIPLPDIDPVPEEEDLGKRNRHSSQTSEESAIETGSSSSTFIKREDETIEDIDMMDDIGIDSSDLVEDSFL
Chain of Cyclin-dependent kinase 7 (P50613 whole entry): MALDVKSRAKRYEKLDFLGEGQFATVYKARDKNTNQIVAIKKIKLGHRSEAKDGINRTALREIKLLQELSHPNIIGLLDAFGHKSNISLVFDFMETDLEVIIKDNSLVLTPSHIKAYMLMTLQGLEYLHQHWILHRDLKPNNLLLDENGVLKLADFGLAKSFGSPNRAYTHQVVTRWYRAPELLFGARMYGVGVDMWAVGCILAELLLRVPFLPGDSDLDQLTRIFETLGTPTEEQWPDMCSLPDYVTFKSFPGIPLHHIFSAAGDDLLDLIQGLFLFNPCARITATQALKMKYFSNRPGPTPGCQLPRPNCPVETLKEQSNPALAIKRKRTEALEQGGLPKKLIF
Chain of ALK tyrosine kinase receptor (Q9UM73 whole entry): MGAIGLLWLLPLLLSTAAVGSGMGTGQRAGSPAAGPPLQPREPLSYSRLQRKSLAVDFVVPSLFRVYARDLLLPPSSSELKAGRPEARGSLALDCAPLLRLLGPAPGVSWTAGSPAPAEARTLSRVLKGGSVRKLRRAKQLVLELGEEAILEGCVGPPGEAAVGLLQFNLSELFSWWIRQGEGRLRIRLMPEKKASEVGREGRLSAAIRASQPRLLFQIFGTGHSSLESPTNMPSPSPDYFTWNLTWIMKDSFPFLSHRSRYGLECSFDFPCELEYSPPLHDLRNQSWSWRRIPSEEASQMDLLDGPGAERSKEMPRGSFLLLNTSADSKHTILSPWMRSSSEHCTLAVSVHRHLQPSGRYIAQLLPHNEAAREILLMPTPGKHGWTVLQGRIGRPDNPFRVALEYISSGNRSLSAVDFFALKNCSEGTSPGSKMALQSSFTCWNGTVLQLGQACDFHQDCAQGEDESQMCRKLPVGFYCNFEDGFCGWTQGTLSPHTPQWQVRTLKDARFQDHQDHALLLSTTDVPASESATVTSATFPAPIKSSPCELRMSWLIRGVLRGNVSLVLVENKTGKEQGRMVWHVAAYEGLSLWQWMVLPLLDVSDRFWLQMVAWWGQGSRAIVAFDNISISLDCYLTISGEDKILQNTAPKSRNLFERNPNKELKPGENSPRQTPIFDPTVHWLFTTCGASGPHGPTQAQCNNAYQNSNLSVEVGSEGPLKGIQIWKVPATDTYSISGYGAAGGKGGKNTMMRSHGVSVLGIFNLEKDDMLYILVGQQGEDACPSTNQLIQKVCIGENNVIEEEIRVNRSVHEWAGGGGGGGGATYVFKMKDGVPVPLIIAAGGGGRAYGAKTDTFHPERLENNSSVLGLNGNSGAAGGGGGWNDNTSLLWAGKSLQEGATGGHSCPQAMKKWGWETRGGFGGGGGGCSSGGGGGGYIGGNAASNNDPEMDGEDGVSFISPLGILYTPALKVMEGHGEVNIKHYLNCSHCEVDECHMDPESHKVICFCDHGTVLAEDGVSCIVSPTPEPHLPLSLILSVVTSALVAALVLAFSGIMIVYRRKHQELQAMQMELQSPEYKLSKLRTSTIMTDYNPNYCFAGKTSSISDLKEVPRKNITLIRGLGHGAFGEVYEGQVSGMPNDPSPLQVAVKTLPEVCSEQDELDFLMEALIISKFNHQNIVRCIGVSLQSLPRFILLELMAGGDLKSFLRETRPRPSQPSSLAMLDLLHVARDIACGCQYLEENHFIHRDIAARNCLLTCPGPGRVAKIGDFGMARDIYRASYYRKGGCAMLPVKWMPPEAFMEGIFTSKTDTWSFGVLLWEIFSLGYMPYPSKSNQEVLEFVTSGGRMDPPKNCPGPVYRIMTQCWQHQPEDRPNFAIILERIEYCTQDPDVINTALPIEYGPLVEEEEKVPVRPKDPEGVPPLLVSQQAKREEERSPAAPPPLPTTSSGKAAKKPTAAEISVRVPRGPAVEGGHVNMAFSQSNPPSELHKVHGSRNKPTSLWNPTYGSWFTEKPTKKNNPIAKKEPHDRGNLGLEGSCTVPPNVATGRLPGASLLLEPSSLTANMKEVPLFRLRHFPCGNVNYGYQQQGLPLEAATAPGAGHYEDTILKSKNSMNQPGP
Chain of Death-associated protein kinase 3 (O43293 whole entry): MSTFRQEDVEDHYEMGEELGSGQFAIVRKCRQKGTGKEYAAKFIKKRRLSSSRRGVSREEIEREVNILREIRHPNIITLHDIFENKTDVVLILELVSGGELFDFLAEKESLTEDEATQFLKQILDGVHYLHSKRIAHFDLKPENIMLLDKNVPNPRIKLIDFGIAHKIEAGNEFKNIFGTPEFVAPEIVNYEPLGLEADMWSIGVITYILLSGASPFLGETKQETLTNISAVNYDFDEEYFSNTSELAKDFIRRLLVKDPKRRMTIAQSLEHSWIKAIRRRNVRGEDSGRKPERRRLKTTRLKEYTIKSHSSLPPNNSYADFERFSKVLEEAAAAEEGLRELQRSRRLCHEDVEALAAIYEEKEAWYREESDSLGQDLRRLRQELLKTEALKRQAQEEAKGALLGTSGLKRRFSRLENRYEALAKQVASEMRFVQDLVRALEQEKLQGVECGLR
Chain of Dual specificity mitogen-activated protein kinase kinase 2 (P36507 whole entry): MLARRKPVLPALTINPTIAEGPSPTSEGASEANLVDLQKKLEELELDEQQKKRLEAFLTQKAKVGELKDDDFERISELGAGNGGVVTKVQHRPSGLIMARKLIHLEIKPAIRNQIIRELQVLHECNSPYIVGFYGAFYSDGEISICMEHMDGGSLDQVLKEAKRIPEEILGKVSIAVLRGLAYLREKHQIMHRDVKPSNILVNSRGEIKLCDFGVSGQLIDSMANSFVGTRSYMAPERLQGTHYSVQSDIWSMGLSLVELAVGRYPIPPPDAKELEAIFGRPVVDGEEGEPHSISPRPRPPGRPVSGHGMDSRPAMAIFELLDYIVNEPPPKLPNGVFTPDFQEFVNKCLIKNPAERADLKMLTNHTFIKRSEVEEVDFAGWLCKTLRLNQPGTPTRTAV
Chain of Protein kinase C theta type (Q04759 whole entry): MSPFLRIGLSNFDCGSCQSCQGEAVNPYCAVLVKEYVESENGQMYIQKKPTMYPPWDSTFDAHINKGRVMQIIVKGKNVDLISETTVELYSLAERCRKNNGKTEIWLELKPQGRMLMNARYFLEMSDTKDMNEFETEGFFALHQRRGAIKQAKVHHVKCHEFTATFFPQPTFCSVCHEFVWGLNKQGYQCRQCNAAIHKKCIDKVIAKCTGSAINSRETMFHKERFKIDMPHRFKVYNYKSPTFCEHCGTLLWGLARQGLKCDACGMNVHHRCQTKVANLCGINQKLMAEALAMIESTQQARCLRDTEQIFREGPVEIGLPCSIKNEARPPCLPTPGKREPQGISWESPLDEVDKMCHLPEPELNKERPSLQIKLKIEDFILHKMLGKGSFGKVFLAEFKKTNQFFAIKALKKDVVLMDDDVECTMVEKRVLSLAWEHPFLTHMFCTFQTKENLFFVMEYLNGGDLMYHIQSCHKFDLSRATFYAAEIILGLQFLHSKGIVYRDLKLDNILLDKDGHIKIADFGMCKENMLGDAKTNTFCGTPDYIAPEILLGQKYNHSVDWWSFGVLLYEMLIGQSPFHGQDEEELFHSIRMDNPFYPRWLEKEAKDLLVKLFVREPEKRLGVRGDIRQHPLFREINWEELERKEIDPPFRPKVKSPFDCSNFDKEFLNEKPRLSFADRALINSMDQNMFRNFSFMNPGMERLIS

## CC(C)CC(=O)NC(c1cccs1)c1ccc2cccnc2c1O (configuration not stated)
[1]
  EC50: 0.58 µM (active)
[2]
  AC50: 3.71 µM (active)

## CCOC(=O)c1ccc(NC2=CC(=O)C(=O)c3ccccc32)cc1
[3]
  EC50: 15.5 µM (active)
[4]
  EC50: 13.8 µM (active)
[2]
  AC50: 4.3 µM (active)
cells
  IC50: 19.2 µM (active)
[5]
  AC50: > 380 µM (inactive)

## OC(CNCCC1C=Nc2ccccc21)Cn1c2ccc(Cl)cc2c2cc(Cl)ccc21 (configuration not stated)
[1]
  EC50: > 38 µM (not active)
[3]
  EC50: 2.73 µM (active)
[4]
  EC50: 2.7 µM (active)
[5]
  AC50: 6.51 µM (active)

## CCCCCCCCCCCCCCCC[N+](C)(C)C
[1]
  EC50: > 38 µM (not active)
[5]
  AC50: 4.78 µM (active)

## NC1CCC(Nc2nc(Cl)cc(-c3c[nH]c4ncccc34)n2)CC1 (configuration not stated)
[6]
  Ki: 0.000794 µM (active)
  pKi: 9.1
[7]
  Ki: 2 µM (active)
[8]
  Ki: 0.631 µM (active)
  pKi: 6.2
[9]
  Ki: 2.51 µM (active)
[10]
  Ki: 0.0501 µM (active)
  pKi: 7.3
Activin receptor type-1
  Ki: 0.631 µM (active)
  pKi: 6.2
Aurora kinase A
  Ki: > 1.58 µM (inactive)
[11]
  Ki: 0.398 µM (active)
  pKi: 6.4
[12]
  Ki: > 2.51 µM (inactive)
[13]
  Ki: 1.26 µM (active)
  pKi: 5.9
[14]
  Ki: > 6.31 µM (inactive)
[15]
  Ki: 0.0501 µM (active)
  pKi: 7.3
[16]
  Ki: 0.0316 µM (active)
  pKi: 7.5
[17]
  Ki: 2 µM (active)
  pKi: 5.7

## O=C(O)C1CN(Cc2ccc(OCc3ccccc3)cc2Cl)C1
[6]
  Ki: > 2.51 µM (inactive)
[7]
  Ki: > 3.16 µM (inactive)
[8]
  Ki: > 6.31 µM (inactive)
[9]
  Ki: > 3.16 µM (inactive)
[10]
  Ki: > 5.01 µM (inactive)
Activin receptor type-1
  Ki: 0.126 µM (active)
Aurora kinase A
  Ki: > 1.58 µM (inactive)
[11]
  Ki: > 3.98 µM (inactive)
[12]
  Ki: > 2.51 µM (inactive)
[13]
  Ki: > 2.51 µM (inactive)
[14]
  Ki: > 6.31 µM (inactive)
[15]
  Ki: > 3.98 µM (inactive)
[16]
  Ki: > 3.98 µM (inactive)
[17]
  Ki: > 3.98 µM (inactive)

## Cc1ccccc1-c1cc2c(nn1)-c1ccccc1C2=O
cells
  IC50: 14.7 µM (active)
[5]
  AC50: 6.85 µM (active)
